Biological target: Integrin alpha-V/beta-3 (Homo sapiens, UniProt P05106+P06756)
Experiment: Inhibition of biotinylated vitronectin binding to human alphaVbeta3 integrin after 3 hrs by ELISA
Assay type: protein-complex assay

Integrin alpha-V/beta-3, sequence (P05106 27-788 limits assumed): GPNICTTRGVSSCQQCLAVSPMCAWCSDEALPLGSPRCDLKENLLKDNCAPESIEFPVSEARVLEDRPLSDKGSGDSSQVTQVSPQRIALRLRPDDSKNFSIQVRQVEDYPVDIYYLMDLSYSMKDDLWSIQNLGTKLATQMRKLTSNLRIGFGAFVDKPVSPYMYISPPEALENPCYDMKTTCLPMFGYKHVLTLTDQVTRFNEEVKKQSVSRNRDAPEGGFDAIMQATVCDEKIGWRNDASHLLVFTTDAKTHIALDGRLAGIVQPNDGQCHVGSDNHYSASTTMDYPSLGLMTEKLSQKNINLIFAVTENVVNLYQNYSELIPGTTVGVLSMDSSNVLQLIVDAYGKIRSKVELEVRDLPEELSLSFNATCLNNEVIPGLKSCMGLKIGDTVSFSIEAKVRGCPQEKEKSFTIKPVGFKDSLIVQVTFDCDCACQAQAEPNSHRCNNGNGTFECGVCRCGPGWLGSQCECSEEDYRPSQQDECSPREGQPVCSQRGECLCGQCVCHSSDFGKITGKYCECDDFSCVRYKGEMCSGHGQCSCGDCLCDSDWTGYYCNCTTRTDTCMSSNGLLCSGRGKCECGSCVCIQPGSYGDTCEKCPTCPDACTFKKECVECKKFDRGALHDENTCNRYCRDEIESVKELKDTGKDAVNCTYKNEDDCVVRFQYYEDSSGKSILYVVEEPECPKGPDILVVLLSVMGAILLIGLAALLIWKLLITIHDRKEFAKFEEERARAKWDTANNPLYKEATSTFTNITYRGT
Integrin alpha-V/beta-3, sequence (P06756 31-889 limits assumed): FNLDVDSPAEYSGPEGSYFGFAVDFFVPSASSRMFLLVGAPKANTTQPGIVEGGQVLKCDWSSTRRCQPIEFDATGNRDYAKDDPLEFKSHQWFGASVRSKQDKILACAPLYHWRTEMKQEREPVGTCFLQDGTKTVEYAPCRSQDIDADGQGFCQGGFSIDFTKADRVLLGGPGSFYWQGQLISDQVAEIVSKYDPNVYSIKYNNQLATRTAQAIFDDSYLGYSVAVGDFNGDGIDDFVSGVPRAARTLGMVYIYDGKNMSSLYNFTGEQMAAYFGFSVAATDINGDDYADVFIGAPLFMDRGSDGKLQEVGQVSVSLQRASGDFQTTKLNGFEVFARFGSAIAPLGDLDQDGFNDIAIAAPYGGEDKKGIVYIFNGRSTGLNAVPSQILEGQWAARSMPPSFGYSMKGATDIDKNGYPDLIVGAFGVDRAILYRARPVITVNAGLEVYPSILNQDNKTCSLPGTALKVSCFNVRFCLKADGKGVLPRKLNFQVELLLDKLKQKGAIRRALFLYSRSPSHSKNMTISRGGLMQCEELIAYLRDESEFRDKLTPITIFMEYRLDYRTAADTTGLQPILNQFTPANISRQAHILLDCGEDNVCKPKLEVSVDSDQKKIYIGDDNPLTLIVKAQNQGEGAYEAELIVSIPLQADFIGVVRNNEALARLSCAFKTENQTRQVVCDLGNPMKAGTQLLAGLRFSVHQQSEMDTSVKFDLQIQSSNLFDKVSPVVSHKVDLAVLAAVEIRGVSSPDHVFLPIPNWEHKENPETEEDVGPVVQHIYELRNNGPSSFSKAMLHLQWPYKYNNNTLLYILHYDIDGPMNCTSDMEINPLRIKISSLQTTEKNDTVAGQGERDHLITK
Integrin alpha-V/beta-3, sequence (P06756 891-1048 limits assumed): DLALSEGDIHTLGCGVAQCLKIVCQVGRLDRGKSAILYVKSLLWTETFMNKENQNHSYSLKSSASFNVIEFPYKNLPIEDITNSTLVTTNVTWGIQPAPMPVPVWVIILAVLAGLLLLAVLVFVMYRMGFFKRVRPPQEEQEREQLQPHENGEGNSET

SMILES	IC50 [nM]
CC(C)(CN)COC(=O)NCCS(=O)(=O)N[C@@H](CNC(=O)c1ccc(OCCNC2=NCCCN2)cc1)C(=O)O	2.07
CC(C)(CNC(=O)OCCOCCOCCOCCOCCOCCOCCOCCOC(=O)NCC(C)(C)COC(=O)NCCS(=O)(=O)N[C@@H](CNC(=O)c1ccc(OCCN=C2NCCCN2)cc1)C(=O)O)COC(=O)NCCS(=O)(=O)N[C@@H](CNC(=O)c1ccc(OCCN=C2NCCCN2)cc1)C(=O)O	0.32
NCCS(=O)(=O)N[C@@H](CNC(=O)c1ccc(OCCNC2=NCCCN2)cc1)C(=O)O	22.3

Source: ChEMBL document CHEMBL1268939, “Synthesis and evaluation of bivalent, peptidomimetic antagonists of the αvβ3 integrins” (Bioorg Med Chem Lett, 2010)
